The text below walks through data of the METLIN SMRT retention time set (Domingo-Almenara et al. 2019).

This series in a line: gradient 5% acetonitrile 3 min, to 50% in 2 min, to 85% in 15 min, held 3 min, 100 µL/min. The note with it: column: Zorbax Extend-C18 2.1 x 50 mm; eluents: water / acetonitrile, 0.1% formic acid. The method, boiled down: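 Retention time was recorded from adduct peaks, which were picked computationally and each inspected manually. Pure standards ran in mixtures of ~100 molecules on HPLC coupled to a quadrupole time-of-flight mass spectrometer, in positive and negative ionization mode, through a Zorbax Extend-C18 column (2.1 × 50 mm, 1.8 μm) at 100 μL/min. Eluents were water and acetonitrile, each with 0.1% formic acid.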
For the molecule `Cc1ccc(NC(=O)C2CCN(C(=O)C3Sc4ccccc4NC3=O)CC2)cc1C` (stereo not given), the RP-LC retention time amounted to 818 s.
The figure for `COc1ccc2cc(C(=O)N3CCC(CC(=O)NC4CC4)CC3)[nH]c2c1` is 690 s.
As for `N#Cc1ccc(C(=O)NC2CCN(C(=O)N3C[C@H]4C[C@H](C3)[C@H]3CCCC(=O)N3C4)CC2)cc1`, the RP-LC retention time is 640 s.
The result for `Cc1ccc(C)c(NC(=O)Cn2cccc(-c3nc(-c4ccc(Br)cc4)no3)c2=O)c1` reads 1030 s; that for `CCOCCCNC(=O)C1CCN(c2nnc3c(Cl)cccn23)CC1`, 610 s; that for `COc1ncccc1CNS(=O)(=O)c1ccc(C)cc1`, 817 s.
The molecule `Cc1ccc(-n2nc(N3CCN(C(=O)C4CC4)CC3)ccc2=O)cc1C` yielded an RP-LC retention time of 749 s.
The figure for `COc1ccccc1CNC(=O)c1cn2c(n1)CCCC2` is 589 s.
Turning to `CCn1c(=O)c(N2CCN(C(=O)NCc3ccccc3)CC2)nc2ccccc21`, the RP-LC retention time came to 820 s.
The figure for `COc1ccc(Br)cc1CNC(=O)CN1C(=O)CCCc2ccccc21` is 892 s.
As for `Cn1cc(-c2ccncc2)cc1C(=O)N1CCN(c2ccccc2F)CC1`, the RP-LC retention time came to 650 s.
The result for `CCN1C(=O)CCC2(C(=O)Nc3ccc(OC)cc3OC)CCCC=C12` (stereo not given) reads 789 s; that for `Cc1nn(CC(=O)NC2CCCCC2)c(=O)c2c(-n3cccc3)n(-c3ccc(Cl)cc3)nc12`, 1130 s; that for `COc1ccc(CC(=O)Nc2nnc(SCc3nnc(-c4ccccc4)o3)s2)cc1`, 848 s.
Molecule `O=C(c1ccc(OCC2CCCN2C(=O)c2ccc(F)c(F)c2)cc1)N1CCCC1` (stereo not given) gave an RP-LC retention time of 779 s.
Regarding `Cc1ccc(C)c(N2CCN(C(=O)c3cn4ccccc4n3)CC2)c1`, the RP-LC retention time turned out to be 771 s.
The result for `Cc1ccn2c(=O)cc(CN(C)Cc3ccc(Cl)cc3)nc2c1` reads 631 s; that for `Cc1ccc(C)c(NC(=O)C2CC(=O)N(c3n[nH]c4cccc(F)c34)C2)c1` (stereo not given), 758 s.
The figure for `Cc1ccc2ncn3c(=O)n(CC(=O)Nc4ccc5c(c4)OCO5)nc3c2c1` is 673 s.
In turn, `O=C(Nc1ccc(N2CCCCCC2)c(C(=O)O)c1)c1cccs1` yielded an RP-LC retention time of 657 s.
On to `CCc1nc2cc(-c3noc(Cc4ccc(OC)c(OC)c4)n3)ccc2o1`, for which the RP-LC retention time was determined as 956 s.
The figure for `Cc1noc([C@@H]2CN(Cc3cc(F)ccc3F)C[C@H]2CO)n1` is 576 s; for `Cc1nc(-c2csc(S(=O)(=O)N3CCCC(C(=O)NCCc4ccccc4)C3)c2)no1` (stereo not given) it is 901 s; for `O=C(Cc1csc2nc(-c3ccccc3)cn12)Nc1ccc(Cl)cc1` it is 868 s.
`O=C(O)COc1ccc(OCCNC[C@H](O)COc2ccccc2)cc1` showed an RP-LC retention time of 679 s.
The figure for `O=C(c1cccs1)N1CCC2(CC1)NC(=O)N(Cc1ccccc1)C2=O` is 741 s.
The figure for `O=S(=O)(Cc1ccccc1)N1CCC(c2noc(COCC3CC3)n2)CC1` is 941 s.
The figure for `Cc1ccc(C2=NC3(CCN(C(=O)c4ccn[nH]4)CC3)ON2)cc1` is 680 s.
The molecule `O=C(NCc1cccs1)c1cccn1Cc1noc(-c2ccccc2)n1` gave an RP-LC retention time of 972 s.
The result for `CCc1noc(-c2nc(-c3ccc(OC)cc3)no2)n1` reads 986 s.
The result for `CCC(C)(C)C(=O)N1CCCC1Cc1noc(-c2cccnc2)n1` (stereo not given) reads 839 s; that for `O=C(CC1CCN(C(=O)Nc2ccc(F)cc2F)CC1)N1CCCCC1`, 722 s.
The result for `Cn1c(=O)n(C)c2cc(S(=O)(=O)c3ccc(F)cc3)c(NC(=O)Cc3cccc(F)c3)cc21` reads 873 s.
`CCCCNC(=O)CC1CCN(C(=O)c2[nH]c(C)c(C(=O)OC)c2C)CC1` returned an RP-LC retention time of 689 s.
The figure for `O=C(C1CCN(S(=O)(=O)c2ccc(-c3noc(C4CC4)n3)cc2)CC1)N1CCOCC1` is 805 s.
Molecule `COc1ccc(-c2nc(-c3cccc(-c4ccn[nH]4)c3)no2)c(C)c1` returned an RP-LC retention time of 1060 s.
For `O=C(Cn1cnc2c(-c3ccc(Cl)cc3)csc2c1=O)N1CCCCC1`, the RP-LC retention time was 922 s.
Molecule `CCC(C)n1c(C)cc(=O)n1C(C)CC` (stereo not given) displayed an RP-LC retention time of 759 s.
The molecule `COc1ccc(-c2nc3cccnc3n2C2CCN(C(=O)c3ccco3)C2)cc1` (stereo not given) had an RP-LC retention time of 685 s.
In turn, `Cc1cc(C)c(C)c(S(=O)(=O)N(C)C)c1C` registered an RP-LC retention time of 939 s.
The result for `COCC1CN(C(=O)c2ccc(Br)o2)CCC1(F)F` (stereo not given) reads 847 s.
Molecule `CCOC(=O)c1cc(S(=O)(=O)N2CCCC2C(=O)N2CCC(Cc3ccccc3)CC2)cn1C` (stereo not given) gave an RP-LC retention time of 1020 s.
`Cc1ccc(-c2nc(-c3cccc(-c4ccn[nH]4)c3)no2)s1`: the RP-LC retention time stood at 1020 s.
`O=C(CSc1nnc2c3sc(N4CCCC4)nc3ncn12)Nc1ccc2c(c1)OCCO2` came in with an RP-LC retention time of 758 s.
The figure for `Cc1c(C(=O)C(=O)N(C)Cc2ccccc2)c2ccccc2n1C` is 900 s; for `O=C(Cc1csc2nc(-c3cccc(Br)c3)cn12)NCc1ccc2c(c1)OCO2` it is 869 s; for `CCOC(=O)c1c(CN2CCCC2)n(C)c2cc(-c3ccncc3)c3c(c12)CN(C)CO3` it is 730 s.
On to `O=C(NCc1cccc(Br)c1)C1CCN(c2nnc(-c3ccccc3)o2)CC1`, for which the RP-LC retention time came to 885 s.
The result for `CN1CCN(c2cc(-c3nc(-c4ccc(Cl)cc4)no3)c3ccccc3n2)CC1` reads 881 s.
Consider `O=S(=O)(Cc1ccccc1)N1CCCCC1c1nc(C2CC2)n[nH]1` (stereo not given), for which the RP-LC retention time came to 758 s.
`O=C(NCC1CC1)c1c(OCC2CC2)cc(=O)n2c1CCCCC2` showed an RP-LC retention time of 688 s.
The figure for `Cc1ccc(S(=O)(=O)N2CCC(n3c(-c4ccco4)nc4cccnc43)C2)cc1F` (stereo not given) is 954 s; for `Cc1ccc(S(=O)(=O)N2CCCC(CCC(=O)N3CCCCC3)C2)cc1` (stereo not given) it is 962 s; for `Cc1ccc(NS(=O)(=O)c2ccc3c(c2)CCCC(=O)N3)cc1F` it is 763 s.
For the molecule `COCc1nncn1C1CN(C(=O)Cc2ccc(Cl)cc2)C1`, the RP-LC retention time was 642 s.
In turn, `Cc1noc(-c2nn(C)c3c2CN(C(=O)COc2ccc(Cl)cc2)CC3)n1` gave an RP-LC retention time of 791 s.
For the molecule `O=C(NCc1ccc2c(c1)OCO2)c1nnc2n(c1=O)CCN2c1ccc(F)cc1`, the RP-LC retention time is 683 s.
The figure for `Cc1ccccc1Cn1c(CN2CCC(C(=O)N(C)Cc3ccco3)CC2)cc2ccccc21` is 816 s; for `COCCn1cc2c3c(cccc31)CN(C(=O)c1ccc(Br)o1)CC2` it is 976 s; for `Cc1ccc(NC(=O)C2CCN(S(=O)(=O)c3ccc4c(c3)CCCC(=O)N4)CC2)cc1C` it is 814 s.
